From patent publication US20260272906A1, “PERIPHERALLY RESTRICTED LPAR1 ANTAGONISTS AND USES THEREOF” (CONTINEUM THERAPEUTICS, INC., priority 2024, published 2026)

Legend:
human LPA1 = human LPA1 (Homo sapiens, UniProt Q92633); assay: In vitro functional assay of lysophosphatidic acid receptor 1 activity (calcium flux, Fluo-4 NW, LPA 18:1 at EC80); format: cell-based; conditions: B103 cells stably expressing human LPA1
Description: Primary compound plates were prepared in 100% DMSO (Sigma-Aldrich), secondary compound plates were prepared at 10× concentration in DMEM (Invitrogen), and tertiary compound plates were prepared at 3× concentration in assay buffer containing HBSS (no Ca^+2/Mg^+2, Invitrogen) and 0.1% BSA (Sigma-Aldrich). Fluo-4 NW calcium assay dye (Invitrogen) was prepared as per manufacturer's recommendations in assay buffer. B103 cells stably expressing human LPA1 (J. Chun lab, UCSD) were grown to confluency in DMEM media (Invitrogen) containing 10% FBS (ATCC), 10% Penicillin-Streptomycin (Sigma-Aldrich) and 50 μg Geneticin (Sigma-Aldrich), and detached with Accutase (Sigma-Aldrich) prior to assay. The freshly detached cells were resuspended in growth media and plated in black, clear-bottom 96-well plates (Costar) containing compound (i.e., secondary compound plate) at a density of 5×10^4 cells/well. Once plated, cells were left at room temperature for 30 minutes and then transferred to a 37° C., 5% CO2 incubator for 24 hours. […] Finally, lysophosphatidic acid (18:1) at the EC80 concentration was added and calcium flux measured using FlexStation 3 (Molecular Devices). Sigmoidal dose-response curves were generated by measuring […] over 45 sec and calculating the area under the curve. […]

[1] = Rat PK: brain penetration after PO dosing; format: in vivo; conditions: 10 mg/kg, Rat PK: Dosing PO @ 10 mpk; for Kp uu: read-out: Kp,uu (unbound brain-to-plasma partitioning)

human LPA1, sequence (Q92633 whole entry): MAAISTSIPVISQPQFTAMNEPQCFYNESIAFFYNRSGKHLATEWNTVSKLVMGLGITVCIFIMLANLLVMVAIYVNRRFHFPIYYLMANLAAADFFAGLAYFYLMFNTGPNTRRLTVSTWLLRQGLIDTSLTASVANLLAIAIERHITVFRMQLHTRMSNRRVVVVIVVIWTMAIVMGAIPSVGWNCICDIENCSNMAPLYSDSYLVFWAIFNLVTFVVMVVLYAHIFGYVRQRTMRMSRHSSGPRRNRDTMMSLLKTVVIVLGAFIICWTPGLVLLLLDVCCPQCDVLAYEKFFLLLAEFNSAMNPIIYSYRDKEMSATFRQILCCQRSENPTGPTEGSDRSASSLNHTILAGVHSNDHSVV

Compound | IC50 (human LPA1) [nM] | concentration at 2 h [1] [nM] | Kp uu [1]
COc1ccc(NC(=O)N(c2cnccc2C(C)C)[C@H]2CC[C@H](C(=O)O)CC2)c(OC(F)F)n1 [Example 1, trans-4-(3-(2-(difluoromethoxy)-6-methoxypyridin-3-yl)-1-(4-isopropylpyridin-3-yl)ureido)cyclohexane-1-carboxylic acid] | 10 to 100 | 290 | 0.05
COc1ccc(NC(=O)N(c2ncccc2C(C)C)[C@H]2CC[C@H](C(=O)O)CC2)c(OC(F)F)n1 [Example 2, trans-4-(3-(2-(difluoromethoxy)-6-methoxypyridin-3-yl)-1-(3-isopropylpyridin-2-yl)ureido)cyclohexane-1-carboxylic acid] | 10 to 100 | 2100 | 0.15
